Laboratory results taken from PMC10176470, “Engaging a Non-catalytic Cysteine Residue Drives Potent and Selective Inhibition of Caspase-6” (Journal of the American Chemical Society, 2023).

Tests used:
Assay in all cases: SILAC proteomics / in-gel fluorescence, competition of probe 13-t labeling by 3a
[1] = biological target: proteins of HEK293T cells transiently overexpressing caspase-6 (Homo sapiens, UniProt O00571)
[2] = biological target: proteins of HEK293T cells transiently overexpressing caspase-6 (Homo sapiens, UniProt P63261); settings: Comp; protein ACTG1 P63261
[3] = biological target: proteins of HEK293T cells transiently overexpressing caspase-6 (Homo sapiens, UniProt Q9P258); settings: Comp; protein RCC2 Q9P258
[4] = biological target: proteins of HEK293T cells transiently overexpressing caspase-6 (Homo sapiens, UniProt Q9NR30); settings: Comp; protein DDX21 Q9NR30
[5] = biological target: proteins of HEK293T cells transiently overexpressing caspase-6 (Homo sapiens, UniProt P60842); settings: Comp; protein EIF4A1 P60842
[6] = biological target: proteins of HEK293T cells transiently overexpressing caspase-6 (Homo sapiens, UniProt Q13838); settings: Comp; protein DDX39B Q13838
[7] = biological target: proteins of HEK293T cells transiently overexpressing caspase-6 (Homo sapiens, UniProt P31689)
[8] = biological target: proteins of HEK293T cells transiently overexpressing caspase-6 (Homo sapiens, UniProt Q14974); settings: Comp; protein KPNB1 Q14974
[9] = biological target: T1, proteins of HEK293T cells transiently overexpressing caspase-6 (Homo sapiens, UniProt P40926); settings: Comp; protein MDH2 P40926
T1 sequence (P40926 25-338): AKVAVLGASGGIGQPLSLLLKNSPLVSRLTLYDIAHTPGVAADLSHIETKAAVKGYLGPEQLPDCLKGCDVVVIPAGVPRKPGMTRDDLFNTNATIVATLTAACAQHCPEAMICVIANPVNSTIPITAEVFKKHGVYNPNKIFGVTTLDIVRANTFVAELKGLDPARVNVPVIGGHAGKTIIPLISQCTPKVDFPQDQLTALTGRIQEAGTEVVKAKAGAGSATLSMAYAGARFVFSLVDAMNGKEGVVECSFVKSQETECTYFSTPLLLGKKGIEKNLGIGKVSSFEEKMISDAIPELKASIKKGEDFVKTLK

[10] = biological target: proteins of HEK293T cells transiently overexpressing caspase-6 (Homo sapiens, UniProt P36405)
[11] = biological target: proteins of HEK293T cells transiently overexpressing caspase-6 (Homo sapiens, UniProt Q14566); settings: Comp; protein MCM6 Q14566
[12] = biological target: proteins of HEK293T cells transiently overexpressing caspase-6 (Homo sapiens, UniProt P38919); settings: Comp; protein EIF4A3 P38919
[13] = biological target: T2, proteins of HEK293T cells transiently overexpressing caspase-6 (Homo sapiens, UniProt P50990); settings: Comp; protein CCT8 P50990
T2 sequence (P50990 1-548): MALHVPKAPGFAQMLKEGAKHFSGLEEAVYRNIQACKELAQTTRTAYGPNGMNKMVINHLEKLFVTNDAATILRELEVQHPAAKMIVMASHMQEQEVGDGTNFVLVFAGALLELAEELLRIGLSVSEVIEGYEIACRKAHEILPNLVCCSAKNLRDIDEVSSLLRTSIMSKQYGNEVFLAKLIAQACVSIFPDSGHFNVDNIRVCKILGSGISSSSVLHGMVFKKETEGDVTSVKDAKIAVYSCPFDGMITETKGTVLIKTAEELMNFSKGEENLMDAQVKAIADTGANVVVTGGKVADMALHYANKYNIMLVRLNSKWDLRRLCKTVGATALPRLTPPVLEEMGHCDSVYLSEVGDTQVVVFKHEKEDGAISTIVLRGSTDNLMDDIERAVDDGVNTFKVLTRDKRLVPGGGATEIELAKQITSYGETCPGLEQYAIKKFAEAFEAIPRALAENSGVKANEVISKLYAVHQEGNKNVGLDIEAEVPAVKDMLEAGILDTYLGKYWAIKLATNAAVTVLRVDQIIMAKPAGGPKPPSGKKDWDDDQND

[14] = biological target: proteins of HEK293T cells transiently overexpressing caspase-6 (Homo sapiens, UniProt P13797); settings: Comp; protein PLS3 P13797
[15] = biological target: proteins of HEK293T cells transiently overexpressing caspase-6 (Homo sapiens, UniProt P05388); settings: Comp; protein RPLP0 P05388
[16] = protein DDX3X (O00571), Exp Comp, analysis C6, p 0.1250, 4 peptides
[17] = protein DNAJA1 (P31689), Exp Comp, analysis C6, p 0.0625, 5 peptides
[18] = protein ARL3 (P36405), Exp Comp, analysis C6, p 0.1250, 5 peptides

proteins of HEK293T cells transiently overexpressing caspase-6 (Homo sapiens, UniProt O00571), sequence (O00571 whole entry): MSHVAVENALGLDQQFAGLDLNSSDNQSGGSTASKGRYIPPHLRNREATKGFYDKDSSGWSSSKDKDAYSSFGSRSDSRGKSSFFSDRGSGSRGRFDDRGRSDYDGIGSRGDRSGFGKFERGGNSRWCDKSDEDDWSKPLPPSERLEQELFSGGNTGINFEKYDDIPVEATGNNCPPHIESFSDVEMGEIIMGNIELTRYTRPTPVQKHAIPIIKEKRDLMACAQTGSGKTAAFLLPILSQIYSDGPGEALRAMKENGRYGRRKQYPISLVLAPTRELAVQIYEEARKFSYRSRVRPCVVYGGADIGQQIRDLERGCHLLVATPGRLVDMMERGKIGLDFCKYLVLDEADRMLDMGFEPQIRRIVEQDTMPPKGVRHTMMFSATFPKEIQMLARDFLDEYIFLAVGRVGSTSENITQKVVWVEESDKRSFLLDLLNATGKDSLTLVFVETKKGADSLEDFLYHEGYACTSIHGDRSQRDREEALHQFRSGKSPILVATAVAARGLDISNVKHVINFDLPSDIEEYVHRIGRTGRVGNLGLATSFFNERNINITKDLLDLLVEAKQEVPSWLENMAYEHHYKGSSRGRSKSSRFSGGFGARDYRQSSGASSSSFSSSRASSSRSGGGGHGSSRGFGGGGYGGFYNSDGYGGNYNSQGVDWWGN
proteins of HEK293T cells transiently overexpressing caspase-6 (Homo sapiens, UniProt P36405), sequence (P36405 whole entry): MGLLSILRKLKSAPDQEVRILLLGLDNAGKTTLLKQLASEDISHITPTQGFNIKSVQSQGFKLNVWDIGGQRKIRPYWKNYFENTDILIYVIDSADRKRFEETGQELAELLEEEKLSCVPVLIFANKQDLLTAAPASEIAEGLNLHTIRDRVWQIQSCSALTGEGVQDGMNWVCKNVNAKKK
proteins of HEK293T cells transiently overexpressing caspase-6 (Homo sapiens, UniProt P31689), sequence (P31689 whole entry): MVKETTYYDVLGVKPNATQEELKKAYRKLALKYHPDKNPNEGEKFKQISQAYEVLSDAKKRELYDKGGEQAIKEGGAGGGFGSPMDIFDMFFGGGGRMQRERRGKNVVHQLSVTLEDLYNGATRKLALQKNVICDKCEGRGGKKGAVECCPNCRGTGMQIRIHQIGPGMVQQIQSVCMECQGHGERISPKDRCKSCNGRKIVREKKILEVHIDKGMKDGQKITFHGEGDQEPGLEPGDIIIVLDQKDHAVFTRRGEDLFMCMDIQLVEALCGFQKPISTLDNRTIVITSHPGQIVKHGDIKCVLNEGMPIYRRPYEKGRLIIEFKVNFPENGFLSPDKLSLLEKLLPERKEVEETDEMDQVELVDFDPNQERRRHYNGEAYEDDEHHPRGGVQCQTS
proteins of HEK293T cells transiently overexpressing caspase-6 (Homo sapiens, UniProt Q9NR30), sequence (Q9NR30 whole entry): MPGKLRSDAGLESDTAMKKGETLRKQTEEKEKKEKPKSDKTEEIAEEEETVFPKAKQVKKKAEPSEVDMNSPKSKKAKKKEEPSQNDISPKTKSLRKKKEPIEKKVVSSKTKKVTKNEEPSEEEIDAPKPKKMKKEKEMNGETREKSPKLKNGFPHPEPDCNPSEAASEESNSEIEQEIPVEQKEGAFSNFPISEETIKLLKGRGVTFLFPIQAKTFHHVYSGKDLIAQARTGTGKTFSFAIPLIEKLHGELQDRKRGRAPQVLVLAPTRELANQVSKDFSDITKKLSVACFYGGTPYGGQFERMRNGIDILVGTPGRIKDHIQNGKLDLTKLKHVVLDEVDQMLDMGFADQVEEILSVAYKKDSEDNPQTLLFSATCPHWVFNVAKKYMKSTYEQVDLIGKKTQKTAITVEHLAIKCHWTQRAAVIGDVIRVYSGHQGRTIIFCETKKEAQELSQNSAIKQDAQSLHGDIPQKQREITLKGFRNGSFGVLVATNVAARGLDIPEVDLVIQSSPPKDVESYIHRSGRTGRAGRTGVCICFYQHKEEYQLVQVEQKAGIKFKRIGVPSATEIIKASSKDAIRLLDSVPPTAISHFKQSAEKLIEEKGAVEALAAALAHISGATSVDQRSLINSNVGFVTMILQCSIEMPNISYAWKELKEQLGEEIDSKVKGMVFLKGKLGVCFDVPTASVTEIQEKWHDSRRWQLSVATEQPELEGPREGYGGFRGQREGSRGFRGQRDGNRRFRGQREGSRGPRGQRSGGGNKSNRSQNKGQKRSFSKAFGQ
proteins of HEK293T cells transiently overexpressing caspase-6 (Homo sapiens, UniProt P13797), sequence (P13797 whole entry): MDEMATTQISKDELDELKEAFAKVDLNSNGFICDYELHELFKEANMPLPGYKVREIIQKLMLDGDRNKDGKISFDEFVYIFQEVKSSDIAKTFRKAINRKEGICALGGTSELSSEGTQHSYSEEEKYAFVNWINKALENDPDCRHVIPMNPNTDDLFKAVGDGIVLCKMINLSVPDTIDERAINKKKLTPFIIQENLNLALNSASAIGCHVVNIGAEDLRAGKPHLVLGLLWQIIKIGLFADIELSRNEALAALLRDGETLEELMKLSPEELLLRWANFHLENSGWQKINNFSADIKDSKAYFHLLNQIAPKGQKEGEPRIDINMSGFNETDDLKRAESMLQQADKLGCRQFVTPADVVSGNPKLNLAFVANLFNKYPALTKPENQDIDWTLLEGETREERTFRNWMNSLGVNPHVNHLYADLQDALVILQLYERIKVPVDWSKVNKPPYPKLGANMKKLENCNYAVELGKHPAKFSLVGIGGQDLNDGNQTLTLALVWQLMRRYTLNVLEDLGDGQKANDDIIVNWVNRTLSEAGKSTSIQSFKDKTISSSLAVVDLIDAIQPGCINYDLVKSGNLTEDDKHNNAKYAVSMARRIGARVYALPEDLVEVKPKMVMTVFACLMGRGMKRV
proteins of HEK293T cells transiently overexpressing caspase-6 (Homo sapiens, UniProt Q14566), sequence (Q14566 whole entry): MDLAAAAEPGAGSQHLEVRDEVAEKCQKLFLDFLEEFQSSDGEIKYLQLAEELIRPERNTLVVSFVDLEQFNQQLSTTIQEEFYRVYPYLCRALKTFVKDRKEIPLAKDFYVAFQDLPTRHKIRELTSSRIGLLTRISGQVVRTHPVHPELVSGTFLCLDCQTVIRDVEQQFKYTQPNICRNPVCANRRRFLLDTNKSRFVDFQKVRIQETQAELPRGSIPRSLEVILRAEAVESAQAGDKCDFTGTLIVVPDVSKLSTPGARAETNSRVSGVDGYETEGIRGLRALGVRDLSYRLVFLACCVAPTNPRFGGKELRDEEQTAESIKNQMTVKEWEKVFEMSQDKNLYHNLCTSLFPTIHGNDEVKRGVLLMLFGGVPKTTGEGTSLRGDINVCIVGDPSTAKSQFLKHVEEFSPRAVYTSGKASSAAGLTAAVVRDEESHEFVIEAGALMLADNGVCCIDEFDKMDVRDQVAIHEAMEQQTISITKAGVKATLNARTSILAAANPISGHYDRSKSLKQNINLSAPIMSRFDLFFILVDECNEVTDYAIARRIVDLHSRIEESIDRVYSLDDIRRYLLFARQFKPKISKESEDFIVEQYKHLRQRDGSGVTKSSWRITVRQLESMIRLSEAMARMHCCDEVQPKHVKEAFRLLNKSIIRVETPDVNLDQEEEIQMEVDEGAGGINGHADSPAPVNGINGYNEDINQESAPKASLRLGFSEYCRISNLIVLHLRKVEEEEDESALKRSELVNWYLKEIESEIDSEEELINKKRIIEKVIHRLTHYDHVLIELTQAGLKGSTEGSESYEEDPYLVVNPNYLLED
proteins of HEK293T cells transiently overexpressing caspase-6 (Homo sapiens, UniProt P38919), sequence (P38919 whole entry): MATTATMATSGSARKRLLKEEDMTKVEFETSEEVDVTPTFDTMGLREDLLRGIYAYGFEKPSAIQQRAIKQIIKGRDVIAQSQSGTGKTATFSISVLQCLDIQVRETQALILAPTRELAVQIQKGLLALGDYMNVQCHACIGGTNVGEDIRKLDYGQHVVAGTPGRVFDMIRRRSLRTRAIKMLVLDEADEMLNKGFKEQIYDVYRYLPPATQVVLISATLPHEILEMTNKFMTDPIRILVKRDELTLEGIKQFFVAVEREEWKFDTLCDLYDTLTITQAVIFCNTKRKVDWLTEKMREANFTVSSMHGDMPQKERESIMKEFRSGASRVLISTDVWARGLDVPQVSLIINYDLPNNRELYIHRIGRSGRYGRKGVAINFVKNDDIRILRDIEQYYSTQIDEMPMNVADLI
proteins of HEK293T cells transiently overexpressing caspase-6 (Homo sapiens, UniProt Q14974), sequence (Q14974 whole entry): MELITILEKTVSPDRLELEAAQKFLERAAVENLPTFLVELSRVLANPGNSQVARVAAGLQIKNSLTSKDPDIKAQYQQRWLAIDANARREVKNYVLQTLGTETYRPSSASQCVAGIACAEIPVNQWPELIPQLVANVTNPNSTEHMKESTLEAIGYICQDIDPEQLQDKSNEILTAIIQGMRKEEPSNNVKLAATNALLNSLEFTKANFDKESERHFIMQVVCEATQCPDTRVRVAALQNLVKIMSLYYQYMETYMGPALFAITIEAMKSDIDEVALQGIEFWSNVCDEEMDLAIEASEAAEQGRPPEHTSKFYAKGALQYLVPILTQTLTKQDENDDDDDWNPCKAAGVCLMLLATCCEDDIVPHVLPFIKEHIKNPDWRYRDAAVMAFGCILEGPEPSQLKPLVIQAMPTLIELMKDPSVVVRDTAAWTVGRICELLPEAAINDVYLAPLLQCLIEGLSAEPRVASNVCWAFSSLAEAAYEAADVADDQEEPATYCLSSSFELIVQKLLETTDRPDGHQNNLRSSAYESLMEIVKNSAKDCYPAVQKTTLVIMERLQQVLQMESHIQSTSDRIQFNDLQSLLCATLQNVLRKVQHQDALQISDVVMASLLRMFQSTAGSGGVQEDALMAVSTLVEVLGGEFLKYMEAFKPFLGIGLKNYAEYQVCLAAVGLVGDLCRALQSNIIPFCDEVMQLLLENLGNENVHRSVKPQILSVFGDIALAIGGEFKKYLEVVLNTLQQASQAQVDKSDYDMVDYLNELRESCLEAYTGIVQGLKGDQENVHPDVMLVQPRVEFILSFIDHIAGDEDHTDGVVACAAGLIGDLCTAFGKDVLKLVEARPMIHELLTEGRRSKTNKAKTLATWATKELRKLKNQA

With `C=CS(=O)(=O)N1C[C@H](C(=O)Nc2ccc(OC(F)(F)F)cc2)C[C@@H](c2ccccc2)C1` [3a] the enrich.exp.med ([1]; Comp, protein DDX3X O00571) was 1.089, the enrich.exp.med.lin [1, 16] was 2.128 and the enrich.exp.med.log2 [1, 16] was 1.089. It also gave an enrich.exp.med [2] of 0.7588, an enrich.exp.med [3] of 0.5769 and an enrich.exp.med [4] of 0.6506. The enrich.exp.med [5] was 0.5985, the enrich.exp.med [6] was 0.6915 and the enrich.exp.med ([7]; Comp, protein DNAJA1 P31689) was 1.02. The enrich.exp.med.lin [7, 17] was 2.028, the enrich.exp.med.log2 [7, 17] was 1.02 and the enrich.exp.med [8] was 0.6036. The enrich.exp.med [9] was 0.5931, the enrich.exp.med ([10]; Comp, protein ARL3 P36405) was 1.0898 and the enrich.exp.med.lin [10, 18] was 2.128. The enrich.exp.med.log2 [10, 18] was 1.0898, the enrich.exp.med [11] was 0.8484 and the enrich.exp.med [12] was 0.7351. For the same compound, the enrich.exp.med [13] was 0.6038, the enrich.exp.med [14] was 0.6361 and the enrich.exp.med [15] was 0.8946.
